# Measured values reported in patent US20230257480A1, “ENHANCING BLOOD-BRAIN BARRIER DRUG TRANSPORT BY TARGETING ENDOGENOUS REGULATORS” (THE BOARD OF TRUSTEES OF THE LELAND STANFORD JUNIOR …, priority 2019, published 2023).
# Tested on: paracellular tight junctions
# Test: 3 kDa dextran tracer uptake probing paracellular permeability after ALPL inhibitor treatment
# Assay type: in vivo
# Conditions: young and aged mice, vs vehicle
# Source text: FIGS. 14A-14D are graphs illustrating flow cytometry quantification of brain endothelial cell uptake of plasma from young mice (3 m.o.) (FIG. 14A), plasma from aged mice (22 m.o.) (FIG. 14B), human holo-transferrin (hu-Tf) from aged mice (FIG. 14C), or transferrin receptor antibody (TfR Ab) from aged mice (FIG. 14D) treated with vehicle (grey) or anti-ALPL (green) via IP injections twice daily for three days, as assessed by % of BECs that are tracer^+ and relative MFI of tracer^+ BECs (for plasma, n=4; for hu-Tf, n=6 vehicle, n=5 anti-ALPL; for TfR Ab, n=9, two-sided t-test, mean+/−s.e.m.). Tracer refers to plasma, hu-Tf, or TfR Ab. FIG. 14E includes representative images of hu-Tf^+ neurons detected in the cortex of mice treated with ALPL inhibitor. Scale bar=40 microns. FIG. 14F includes graphs showing circulating human holo-transferrin and transferrin receptor antibody in blood plasma upon time of sacrifice to control for and ensure no differences in injected amount (for hu-Tf+, n=6 vehicle, n=5 anti-ALPL; for TfR Ab, n=9, two-sided t-test, mean+/−s.e.m.). […] FIG. 14H includes graphs illustrating flow cytometry quantification of brain endothelial cell and brain parenchymal cell uptake of 3 kDa dextran tracer, which probes for disruptions in paracellular permeability, in young mice (3 m.o.) and aged mice (22 m.o.) (n=6 vehicle, n=5 anti-ALPL, two-sided t-test, mean+/−s.e.m.). […]
smiles,measurement,value
"COc1ccc(OC)c(S(=O)(=O)Nc2cnc3ccccc3c2)c1 [ALPL inhibitor, 2,5-Dimethoxy-N-(quinolin-3-yl)benzenesulfonamide]",paracellular tight junctions,did not perturb vascular morphology or compromise
